Source: publication PMC7020211, “Inhibition of Digestive Enzymes and Antioxidant Activity of Extracts from Fruits of Cornus alba, Cornus sanguinea subsp. hungarica and Cornus florida–A Comparative Study” (Plants, 2020)

Test system: glucosidase
Assay: not given
Set-up: method as in Dehghan et al., 2018
Details: ref Dehghan et al., 2018; cited from earlier work

| Compound | anti-glucosidase activity (in words) |
| --- | --- |
| Cc1cc(O)c2c(c1)C(=O)c1cc(O)cc(O)c1C2=O [emodin] | relevant anti-glucosidase activity |
| COc1cc(O)c2c(c1)C(=O)c1cc(C)cc(O)c1C2=O [physcion] | relevant anti-glucosidase activity |
| C[C@H](CCc1ccc(O)cc1)O[C@@H]1O[C@H](CO)[C@@H](O)[C@H](O)[C@H]1O [rhododendrin] | relevant anti-glucosidase activity |

Test system: not given
Assay: not given
Set-up: method as in PMID 11958615
Details: concentration of 40 µM; cited from earlier work

| Compound | antioxidant activity [%] |
| --- | --- |
| OC[C@H]1O[C@@H](Oc2cc3c(O)cc(O)cc3[o+]c2-c2ccc(O)c(O)c2)[C@H](O)[C@@H](O)[C@H]1O [cyanidin 3-O-β-galactoside] | 60.1 |
| OC[C@H]1O[C@@H](Oc2cc3c(O)cc(O)cc3[o+]c2-c2cc(O)c(O)c(O)c2)[C@H](O)[C@@H](O)[C@H]1O [delphinidin 3-O-β-galactoside] | 70.2 |
| OCC1OC(Oc2cc3c(O)cc(O)cc3[o+]c2-c2ccc(O)cc2)C(O)C(O)C1O (stereo not drawn) [pelargonidin 3-O-β-galactoside] | 40.3 |

Biological target: α-glucosidase from Saccharomyces cerevisiae (Saccharomyces cerevisiae, UniProt P53341)
Sequence (P53341 whole entry): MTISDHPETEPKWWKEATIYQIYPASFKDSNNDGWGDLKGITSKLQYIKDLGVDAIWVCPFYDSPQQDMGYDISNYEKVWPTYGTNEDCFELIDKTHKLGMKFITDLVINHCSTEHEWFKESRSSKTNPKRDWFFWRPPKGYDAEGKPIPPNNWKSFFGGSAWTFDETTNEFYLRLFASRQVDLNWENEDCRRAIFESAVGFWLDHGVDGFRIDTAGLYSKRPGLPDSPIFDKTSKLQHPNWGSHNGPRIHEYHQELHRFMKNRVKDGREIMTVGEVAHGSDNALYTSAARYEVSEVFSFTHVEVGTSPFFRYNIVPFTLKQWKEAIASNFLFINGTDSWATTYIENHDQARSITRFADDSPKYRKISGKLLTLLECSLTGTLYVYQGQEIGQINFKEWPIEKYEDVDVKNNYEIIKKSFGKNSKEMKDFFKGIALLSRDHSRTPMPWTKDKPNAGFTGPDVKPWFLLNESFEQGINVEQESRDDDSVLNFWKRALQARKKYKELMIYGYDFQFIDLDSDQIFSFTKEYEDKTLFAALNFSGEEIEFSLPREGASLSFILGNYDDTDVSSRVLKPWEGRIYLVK
Assay: α-glucosidase inhibition (pNPG, spectrophotometric)
Assay type: biochemical
Details: pNPG substrate, pH 6.8, 37 °C; read-out: IC50 [mM] inhibition of α-glucosidase by compounds isolated from fruit of Cornus alba
Excerpt: Acetonitrile (MeCN, UHPLC-grade), n-butanol (BuOH), chloroform (CHCl3), ethyl acetate (EtOAc), ethanol (EtOH) and methanol (MeOH) for extraction were obtained from POCH (Gliwice, Poland). Natural product reagent A (diphenylboric acid 2-aminoethyl ester) and quercetin 3-O-glucoside (isoquercitrin) were purchased from Carl Roth GmbH (Karlsruhe, Germany). […] Quercetin 3-O-galactoside (hyperoside) was purchased from HWI Analytik GmbH (Rheinzaberner, Germany). […] Water was obtained using Millipore Simfilter Simplicity UV (Molsheim, France) water purification system. HPLC-DAD-MS^n analysis was performed on a UHPLC-3000 RS system (Dionex, Germany) with DAD and an AmaZon SL ion trap mass spectrometer with an ESI interface (Bruker Daltonik GmbH, Germany). […] If needed, additional experiments, such as HSQC and HMBC were performed. The NMR spectra were acquired using Varian VNMRS 300 Oxford 300 MHz spectrometer (Bruker, Billerica, MA, USA).
The α-glucosidase inhibition by extracts was determined spectrophotometrically according to the modified assay previously described. The colorimetric measurement of enzyme activity was based on the hydrolytic cleavage of a substrate, p-nitrophenyl-α-D-glucopyranoside (pNPG). Briefly, sample solution of tested extract or isolated compound (150 µl) dissolved in 0.1 M phosphate buffer (pH 6.8) was incubated with 50 µL of α-glucosidase solution (0.4 U/mL) at 37 °C. After 15 min of incubation, the substrate solution (0.7 mM in 0.1 M phosphate buffer, pH 6.8) was added and the second 15 min incubation at 37 °C was performed. The reaction was terminated by adding 50 µL sodium carbonate solution (0.2 M). The absorbance of p-nitrophenol was measured at 405 nm in a microplate reader (Synergy 4, Biotek, USA).

| Compound | IC50 [mM] |
| --- | --- |
| O=C(C=Cc1ccc(O)cc1)OC1CC(O)(C(=O)O)CC(O)C1O (centres unmarked) [compound 2, 5-O-coumaroylquinic acid] | 0.84 ± 0.14 |
| COC(=O)C1(O)CC(O)C(O)C(OC(=O)/C=C/c2ccc(O)cc2)C1 (centres unmarked) [compound 3, 5-O-(E)-p-coumaroylquinic acid methyl ester] | 0.16 ± 0.01 |
| COC(=O)[C@H]1O[C@@H](Oc2c(-c3ccc(O)cc3)oc3cc(O)cc(O)c3c2=O)[C@H](O)[C@@H](O)[C@@H]1O [compound 4, kaempferol 3-O-glucuronide 6″-methylester] | 0.21 ± 0.05 |
| OC[C@H]1O[C@@H](OCCc2ccc(O)c(O)c2)[C@H](O)[C@@H](O)[C@@H]1O [compound 5, hydroxytyrosol glucoside] | 1.46 ± 0.18 |

Biological target: α-glucosidase
Assay: not given
Set-up: method as in doi:10.1016/j.jff.2017.04.005
Details: cited from earlier work

| Compound | IC50 [µM] |
| --- | --- |
| O=C(O)/C=C/c1ccc(O)c(O)c1 [caffeic acid] | 223 |
| COc1cc(/C=C/C(=O)O)ccc1O [ferulic acid] | 461 |
| O=C(O)c1cc(O)c(O)c(O)c1 [gallic acid] | 296 |
| O=c1c(O[C@@H]2O[C@H](CO)[C@@H](O)[C@H](O)[C@H]2O)c(-c2ccc(O)c(O)c2)oc2cc(O)cc(O)c12 [quercetin-3-O-glucoside] | 12.3 |
| kaempferol-3-O-rutinoside | 10.2 |

Test system: not listed separately
Assay: DPPH radical scavenging assay
Details: half scavenging concentration; 30 min incubation, absorbance 518 nm
Description: The scavenging of DPPH radical was examined using a modified assay previously described. The equal volumes (100 µL) of ethanolic solution of DPPH (0.02 M) and extract samples dissolved in 50% (v/v) aqueous-ethanol were added into 96-well microplates and incubated for 30 min in the darkness. The absorbance was measured at 518 nm with microplate reader (Synergy 4, Biotek, USA). The blind samples were prepared in order to exclude color interference. Ascorbic acid was used as a positive control.

| Compound | SC50 DPPH scavenging [µg/mL] |
| --- | --- |
| O=C1O[C@H]([C@@H](O)CO)C(O)=C1O [Ascorbic acid] | 3.73 ± 0.83 |

Test system: PL
Assay: not given
Set-up: method as in doi:10.1016/j.jff.2017.04.005
Details: read-out: IC50 against PL activity; cited from earlier work

| Compound | IC50 [µM] |
| --- | --- |
| O=C(/C=C/c1ccc(O)c(O)c1)O[C@@H]1C[C@](O)(C(=O)O)C[C@@H](O)[C@H]1O [compound 1, chlorogenic acid] | 3810 |
| O=C(O)c1cc(O)c(O)c(O)c1 [gallic acid] | 5050 |
| O=c1c(O[C@@H]2O[C@H](CO)[C@@H](O)[C@H](O)[C@H]2O)c(-c2ccc(O)cc2)oc2cc(O)cc(O)c12 [kaempferol-3-O-glucoside] | 3520 |
| O=c1c(O[C@@H]2O[C@H](CO)[C@@H](O)[C@H](O)[C@H]2O)c(-c2ccc(O)c(O)c2)oc2cc(O)cc(O)c12 [quercetin-3-O-glucoside] | 1740 |
